Assay results as given in ChEMBL document CHEMBL5331106, “Investigation into the Mechanism of Action of the Tuberculosis Drug Candidate SQ109 and Its Metabolites and Analogues in Mycobacteria” (J Med Chem, 2023).
pIC50, pKd: −log10 of the molar value.

Tests used:
[1] = tested on: Mycolicibacterium smegmatis; experiment: Rescue fold, ratio of IC50 for antimycobacterial activity against Mycobacterium smegmatis in presence of 100 uM menaquinone-7 to IC50 for antimycobacterial activity against Mycobacterium smegmatis; assay type: functional
[2] = tested on: Mycolicibacterium smegmatis; experiment: Antimycobacterial activity against Mycobacterium smegmatis assessed as inhibition of mycobacterial growth incubated for 48 hrs in presence of 100 uM menaquinone-7; assay type: functional, organism-based
[3] = tested on: Mycolicibacterium smegmatis; experiment: Antimycobacterial activity against Mycobacterium smegmatis assessed as inhibition of mycobacterial growth incubated for 48 hrs in presence of 200 uM undecaprenyl phosphate; assay type: functional, organism-based
[4] = Inhibition of Staphylococcus aureus dehydrosqualene synthase
[5] = tested on: Mycolicibacterium smegmatis; experiment: Antimycobacterial activity against Mycobacterium smegmatis assessed as inhibition of mycobacterial growth incubated for 48 hrs; assay type: functional, organism-based
[6] = tested on: Mycolicibacterium smegmatis; experiment: Antimycobacterial activity against Mycobacterium smegmatis assessed as inhibition of mycobacterial growth incubated for 48 hrs in presence of 50 uM menaquinone-4 and 50 uM undecaprenyl phosphate; assay type: functional, organism-based
[7] = tested on: Mycobacterium tuberculosis; experiment: Antimycobacterial activity against Mycobacterium tuberculosis HN878 assessed as inhibition of mycobacterial growth incubated for 5 days; assay type: functional, organism-based; conditions: HN878, 120 h
[8] = Inhibition of Staphylococcus aureus farnesyl diphosphate synthase
[9] = tested on: Mycolicibacterium smegmatis; experiment: Antimycobacterial activity against Mycobacterium smegmatis assessed as inhibition of mycobacterial growth incubated for 48 hrs in presence of 50 uM menaquinone-7; assay type: functional, organism-based
[10] = molecular target: T1, (2Z,6E)-farnesyl diphosphate synthase (Mycobacterium tuberculosis, UniProt P9WFF5); experiment: Inhibition of Mycobacterium tuberculosis cis-farnesyl diphosphate synthase
T1 sequence (P9WFF5 whole entry): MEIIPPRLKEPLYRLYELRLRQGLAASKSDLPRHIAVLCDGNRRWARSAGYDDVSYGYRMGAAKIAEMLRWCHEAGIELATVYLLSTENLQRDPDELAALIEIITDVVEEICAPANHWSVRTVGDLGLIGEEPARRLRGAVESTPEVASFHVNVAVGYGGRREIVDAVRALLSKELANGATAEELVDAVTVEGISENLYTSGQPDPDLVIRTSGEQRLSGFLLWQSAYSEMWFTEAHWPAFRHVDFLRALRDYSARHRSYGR

[11] = tested on: Mycolicibacterium smegmatis; experiment: Antimycobacterial activity against Mycobacterium smegmatis assessed as inhibition of mycobacterial growth incubated for 48 hrs in presence of 25 uM menaquinone-4; assay type: functional, organism-based
[12] = tested on: Mycolicibacterium smegmatis; experiment: Antimycobacterial activity against Mycobacterium smegmatis assessed as inhibition of mycobacterial growth incubated for 48 hrs in presence of 12.5 uM undecaprenyl phosphate; assay type: functional, organism-based
[13] = molecular target: T2, Decaprenyl diphosphate synthase (Mycobacterium tuberculosis, UniProt P9WFF7); experiment: Inhibition of Mycobacterium tuberculosis cis-decaprenyl diphosphate synthase
T2 sequence (P9WFF7 whole entry): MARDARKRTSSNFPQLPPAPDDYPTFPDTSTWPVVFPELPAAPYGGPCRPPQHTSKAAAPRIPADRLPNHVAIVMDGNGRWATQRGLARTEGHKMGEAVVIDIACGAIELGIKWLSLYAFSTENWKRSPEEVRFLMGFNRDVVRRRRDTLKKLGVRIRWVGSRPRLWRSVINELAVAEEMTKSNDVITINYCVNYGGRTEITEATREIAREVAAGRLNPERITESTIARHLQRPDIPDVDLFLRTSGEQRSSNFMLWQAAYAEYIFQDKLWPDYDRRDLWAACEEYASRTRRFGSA

[14] = Drug metabolism in Mycobacterium tuberculosis HN878 assessed as N1-(adamantan-1-yl)ethane-1,2-diamine metabolite formation at 10 uM incubated for 24 hrs by LC-MS analysis; assay type: ADME
[15] = Inhibition of Plasmodium vivax geranylgeranyl diphosphate synthase
[16] = Inhibition of Staphylococcus aureus undecaprenyl diphosphate synthase
[17] = tested on: Mycolicibacterium smegmatis; experiment: Antimycobacterial activity against Mycobacterium smegmatis assessed as inhibition of mycobacterial growth incubated for 48 hrs in presence of 200 uM menaquinone-4; assay type: functional, organism-based
[18] = molecular target: T3, Trehalose monomycolate exporter MmpL3 (Mycolicibacterium smegmatis, UniProt A0QP27); experiment: Binding affinity to Mycobacterium smegmatis MmpL3 by surface plasmon resonance assay
T3 sequence (A0QP27 whole entry): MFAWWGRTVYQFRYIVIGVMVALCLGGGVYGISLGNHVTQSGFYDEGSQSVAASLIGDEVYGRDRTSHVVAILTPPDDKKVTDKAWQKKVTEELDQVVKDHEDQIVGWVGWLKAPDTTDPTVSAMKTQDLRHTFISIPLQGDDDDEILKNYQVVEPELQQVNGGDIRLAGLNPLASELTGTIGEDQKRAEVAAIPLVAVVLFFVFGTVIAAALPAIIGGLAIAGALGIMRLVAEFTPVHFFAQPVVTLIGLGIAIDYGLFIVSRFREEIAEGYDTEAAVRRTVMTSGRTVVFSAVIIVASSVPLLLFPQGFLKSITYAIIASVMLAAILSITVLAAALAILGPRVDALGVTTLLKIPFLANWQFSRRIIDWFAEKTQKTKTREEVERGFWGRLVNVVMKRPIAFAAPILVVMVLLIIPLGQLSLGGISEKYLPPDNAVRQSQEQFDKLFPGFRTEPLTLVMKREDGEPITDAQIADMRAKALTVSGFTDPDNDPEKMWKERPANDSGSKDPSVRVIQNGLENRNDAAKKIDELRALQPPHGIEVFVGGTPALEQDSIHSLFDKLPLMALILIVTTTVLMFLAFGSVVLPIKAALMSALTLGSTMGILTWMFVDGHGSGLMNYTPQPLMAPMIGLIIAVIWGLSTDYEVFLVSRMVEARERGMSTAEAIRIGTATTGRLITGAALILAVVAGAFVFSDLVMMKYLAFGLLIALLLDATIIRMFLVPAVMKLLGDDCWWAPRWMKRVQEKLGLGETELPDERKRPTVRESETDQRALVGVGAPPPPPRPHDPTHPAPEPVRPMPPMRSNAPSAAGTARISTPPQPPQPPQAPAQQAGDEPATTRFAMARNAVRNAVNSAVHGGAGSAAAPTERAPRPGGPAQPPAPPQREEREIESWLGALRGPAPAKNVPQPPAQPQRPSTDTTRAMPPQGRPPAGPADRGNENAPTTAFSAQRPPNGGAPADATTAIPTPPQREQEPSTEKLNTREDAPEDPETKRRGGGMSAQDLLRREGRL

[19] = tested on: Mycolicibacterium smegmatis; experiment: Antimycobacterial activity against Mycobacterium smegmatis assessed as inhibition of mycobacterial growth incubated for 48 hrs in presence of 50 uM Upp; assay type: functional, organism-based
[20] = Inhibition of Escherichia coli undecaprenyl diphosphate synthase
[21] = tested on: Mycolicibacterium smegmatis; experiment: Rescue fold, ratio of IC50 for antimycobacterial activity against Mycobacterium smegmatis in presence of 50 uM undecaprenyl phosphate to IC50 for antimycobacterial activity against Mycobacterium smegmatis; assay type: functional
[22] = tested on: Mycolicibacterium smegmatis; experiment: Rescue fold, ratio of IC50 for antimycobacterial activity against Mycobacterium smegmatis in presence of 200 uM menaquinone-4 to IC50 for antimycobacterial activity against Mycobacterium smegmatis; assay type: functional
[23] = molecular target: T3, Trehalose monomycolate exporter MmpL3; experiment: Binding affinity to C-terminal 10XHis-tagged Mycobacterium smegmatis mc2 155 MmpL3 expressed in Mycobacterium smegmatis mc2 155 cells by microscale thermophoresis analysis
[24] = tested on: Mycobacterium tuberculosis; experiment: Antimycobacterial activity against Mycobacterium tuberculosis HN878 assessed as inhibition of mycobacterial growth incubated for 5 days in presence of 50 uM undecaprenyl phosphate; assay type: functional, organism-based; conditions: HN878, 120 h
[25] = tested on: Mycolicibacterium smegmatis; experiment: Antimycobacterial activity against Mycobacterium smegmatis assessed as inhibition of mycobacterial growth incubated for 48 hrs in presence of 50 uM undecaprenyl phosphate; assay type: functional, organism-based
[26] = molecular target: T4, Undecaprenyl-diphosphatase (Escherichia coli (strain K12), UniProt P60932); experiment: Inhibition of UppP in Escherichia coli using FPP as substrate pretreated for 20 mins followed by FPP addition and measured after 60 mins by malachite green based assay
T4 sequence (P60932 whole entry): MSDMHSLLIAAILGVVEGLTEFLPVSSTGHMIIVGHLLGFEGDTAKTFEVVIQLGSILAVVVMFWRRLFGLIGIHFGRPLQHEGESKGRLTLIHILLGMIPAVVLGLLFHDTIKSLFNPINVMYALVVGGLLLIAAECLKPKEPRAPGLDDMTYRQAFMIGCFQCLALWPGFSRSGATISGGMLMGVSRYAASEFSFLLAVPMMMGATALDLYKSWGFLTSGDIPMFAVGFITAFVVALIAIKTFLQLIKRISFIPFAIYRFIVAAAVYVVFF

[27] = tested on: Mycolicibacterium smegmatis; experiment: Antimycobacterial activity against Mycobacterium smegmatis assessed as inhibition of mycobacterial growth incubated for 48 hrs in presence of 100 uM undecaprenyl phosphate; assay type: functional, organism-based
[28] = tested on: Mycolicibacterium smegmatis; experiment: Antimycobacterial activity against Mycobacterium smegmatis assessed as inhibition of mycobacterial growth incubated for 48 hrs in presence of 50 uM menaquinone-4; assay type: functional, organism-based
[29] = tested on: Mycolicibacterium smegmatis; experiment: Antimycobacterial activity against Mycobacterium smegmatis assessed as inhibition of mycobacterial growth incubated for 48 hrs in presence of 25 uM undecaprenyl phosphate; assay type: functional, organism-based
[30] = tested on: Cell membrane; experiment: Uncoupling activity in Escherichia coli inverted membrane vesicles assessed as collapse of pH gradient by measuring increase in ACMA fluorescence intensity by fluorometric analysis; assay type: subcellular

CC(C)=CCC/C(C)=C/CNCCNC1C2CC3CC(C2)CC1C3 (stereo not given) [SQ109]
Ratio IC50 [1]: 3
pIC50 [2]: 5.19
pIC50 [3]: 4.85
pIC50 [4]: ≤ 4.30
pIC50 [5]: 5.82
pIC50 [6]: 4.80
pIC50 [7]: 6.39
pIC50 [8]: ≤ 4.30
pIC50 [9]: 5.38
pIC50 [10]: ≤ 4.30
pIC50 [11]: 5.68
pIC50 [12]: 5.43
pIC50 [13]: ≤ 4.30
Drug metabolism [14]: Metabolite_Notdetected
pIC50 [15]: ≤ 4.30
pIC50 [16]: ≤ 4.30
pIC50 [17]: 5.32
pKd [18]: 3.40
pIC50 [19]: 5.85
pIC50 [20]: ≤ 4.30
Ratio IC50 [21]: 6.4
Ratio IC50 [22]: 2
pKd [23]: 5.80
pIC50 [24]: 5.21
pIC50 [25]: 4.80
pIC50 [26]: 4.49
pIC50 [27]: 4.85
pIC50 [28]: 5.54
pIC50 [29]: 5.05
pIC50 [30]: 5.64
